Legend:
mTOR = biological target: T1, mTOR (Homo sapiens, UniProt P42345); test: mTOR kinobeads assay (dot blot detection); assay type: binding; settings: Table 4, read-out: Inhibition values (IC50) mTOR
T1 construct: endogenous in cells; host or cells: Jurkat cells (ATCC TIB-152, clone E6-1), lysate
Summary of the method: (§1)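 Jurkat cell lysate (5 mg/mL protein) incubated 2 h in the cold with test compound (9-step 1:3 series) and immobilized phenylthiazole/phenylmorpholin-chromen ligand beads. Bead-bound kinases eluted, detected by specific antibody dot blot with infrared readout; IC50 from dose-response curves.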

PI3K delta (PI3Kd) = biological target: T2, PI3K delta (PI3Kd) (Homo sapiens, UniProt O00329); test: kinobeads assay, PI3K delta (dot blot detection); assay type: binding; settings: Table 4, read-out: Inhibition values (IC50) PI3Kd
T2 construct: endogenous in cells; host or cells: Jurkat cells (ATCC TIB-152, clone E6-1), lysate
Summary of the method: as §1

[1] = biological target: T3, DNA-dependent protein kinase (DNA-PK) (Homo sapiens, UniProt P78527); test: kinobeads assay, DNA-PK (dot blot detection); assay type: binding; settings: Table 4, read-out: Inhibition values (IC50) DNAPK
T3 construct: endogenous in cells; host or cells: Jurkat cells (ATCC TIB-152, clone E6-1), lysate
Summary of the method: as §1

PI3Kα = biological target: T4, PI3Kα (Homo sapiens, UniProt P42336); test: kinobeads assay, PI3K alpha (dot blot detection); assay type: binding; settings: Table 4, read-out: Inhibition values (IC50) PI3Ka
T4 construct: endogenous in cells; host or cells: Jurkat cells (ATCC TIB-152) lysate, the only lysate described

PI3Kβ = biological target: T5, PI3Kβ (Homo sapiens, UniProt P42338); test: kinobeads assay, PI3K beta (dot blot detection); assay type: binding; settings: Table 4, read-out: Inhibition values (IC50) PI3Kb
T5 construct: endogenous in cells; host or cells: Jurkat cells (ATCC TIB-152) lysate, the only lysate described

PI3Kγ = biological target: T6, PI3Kγ (Homo sapiens, UniProt P48736); test: kinobeads assay, PI3K gamma (dot blot detection); assay type: binding; settings: Table 4, read-out: Inhibition values (IC50) PI3Kg
T6 construct: endogenous in cells; host or cells: Jurkat cells (ATCC TIB-152) lysate, the only lysate described

[2] = test system: S6RP serine-240/244 phosphorylation in HEK293T/17 cells; test: In vitro phospho-S6 cellular assay (pS6RP S240/244); assay type: cell-based; settings: Homo sapiens, Table 6, 2 hours, S6RP Ser240/244, read-out: pS6 (phospho-S6 cell assay data, activity level)
Summary of the method: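 HEK293T/17 cells in DMEM with 2% FCS treated with 8 compound concentrations (0.1% DMSO) for 2 h at 37 °C, then lysed. Phospho-S6RP Ser240/244 or phospho-Akt Ser473 quantified by MesoScale sandwich immunoassay with Sulfo-Tag detection; IC50 from variable-slope sigmoidal fit.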

[3] = test system: Akt serine-473 phosphorylation in HEK293T/17 cells; test: In vitro phospho-Akt cellular assay (pAkt S473); assay type: cell-based; settings: Homo sapiens, Table 6, 2 hours, Akt Ser473, read-out: pAKT (Phospho-Akt cell assay data, activity level)
Text: In Vitro Phospho-S6 and Phospho-Akt Cellular Assay
Activation of mTOR signaling results in phosphorylation of several downstream targets. In cells, mTOR exists in two different protein complexes. The mTOR Complex-1 (mTORC1) phosphorylates and activates S6 Kinase 1 (S6K1) and S6 Kinase 2 (S6K2) (also known as p70S6K) which then phosphorylate S6 Ribosomal Protein (S6RP) (also known as RPS6). S6RP is phosphorylated on serine 235, serine 236, serine 240 and serine 244 by both pS6K1 and pS6K2. The mTOR Complex-2 (mTORC2) phosphorylates AKT on serine 473 which activates the AKT signaling pathway.
The assay measures a test compound's inhibition of S6RP serine-240/244 phosphorylation and inhibition of Akt serine-473 phosphorylation in human embryonic kidney derived HEK293T/17 cells (ATCC CRL-11268).
The HEK293T/17 cell line is maintained in DMEM media (Invitrogen catalogue number 41965-039) supplemented with 10% FCS at 37° C. in a 5% CO2 humidified incubator.
Cells are seeded in 96-well plates at 40,000 cells/well (pS6RP S240/244 assay) or 80,000 cells/well (pAkt 5473 assay) in 90 μl growth media (DMEM, 2% FCS). Plates are incubated for 1 hour in a humidified incubator to allow the cells to adhere. Cells are treated with 8 concentrations of test compounds or DMSO alone for controls (final DMSO concentration 0.1%) and incubated at 37° C. for 2 hours. Then 20 μl of 5× concentrated lysis buffer (750 mM NaCl, 100 mM Tris pH7.4, 5 mM EDTA, 5 mM EGTA, 5% Triton X-100) is added, plates are sealed and incubated for 15 minutes at 4° C. with gentle shaking. After cell lysis, 25 μl cell lysate is transferred to a MesoScale plate coated with an antibody to pS6RP Ser240/244 (MesoScale Discovery K150DGD-3) or an antibody to pAkt Ser 473 (MesoScale Discovery K151DGD-3). Plates have been blocked before by incubation with 150 μl MesoScale Discovery Blocking Solution-A for 1 hour at room temperature followed by washing with 150 μl 1× Tris wash buffer per well. After the transfer of the cell lysate to the MSD plate, the pS6RP (or pAkt) protein is captured on the coated antibody by incubation at room temperature for 1 hour with gentle shaking. After the capture step the plate is washed three times with 150 μl of 1× Tris wash buffer per well. Then 25 μl detection antibody conjugated with a Sulfo-Tag is added and incubated for 1 hour at room temperature with gentle shaking. Subsequently the antibody solution is removed and the plate is washed 3 times with 150 μl 1× Tris wash buffer per well and 150 μl Read buffer is added. The plates are analysed on a MSD 2400 Plate Reader (MesoScale Discovery). Data analysis is performed using nonlinear regression for a sigmoidal dose-response with a variable slope.

T4 sequence (P42336 whole entry): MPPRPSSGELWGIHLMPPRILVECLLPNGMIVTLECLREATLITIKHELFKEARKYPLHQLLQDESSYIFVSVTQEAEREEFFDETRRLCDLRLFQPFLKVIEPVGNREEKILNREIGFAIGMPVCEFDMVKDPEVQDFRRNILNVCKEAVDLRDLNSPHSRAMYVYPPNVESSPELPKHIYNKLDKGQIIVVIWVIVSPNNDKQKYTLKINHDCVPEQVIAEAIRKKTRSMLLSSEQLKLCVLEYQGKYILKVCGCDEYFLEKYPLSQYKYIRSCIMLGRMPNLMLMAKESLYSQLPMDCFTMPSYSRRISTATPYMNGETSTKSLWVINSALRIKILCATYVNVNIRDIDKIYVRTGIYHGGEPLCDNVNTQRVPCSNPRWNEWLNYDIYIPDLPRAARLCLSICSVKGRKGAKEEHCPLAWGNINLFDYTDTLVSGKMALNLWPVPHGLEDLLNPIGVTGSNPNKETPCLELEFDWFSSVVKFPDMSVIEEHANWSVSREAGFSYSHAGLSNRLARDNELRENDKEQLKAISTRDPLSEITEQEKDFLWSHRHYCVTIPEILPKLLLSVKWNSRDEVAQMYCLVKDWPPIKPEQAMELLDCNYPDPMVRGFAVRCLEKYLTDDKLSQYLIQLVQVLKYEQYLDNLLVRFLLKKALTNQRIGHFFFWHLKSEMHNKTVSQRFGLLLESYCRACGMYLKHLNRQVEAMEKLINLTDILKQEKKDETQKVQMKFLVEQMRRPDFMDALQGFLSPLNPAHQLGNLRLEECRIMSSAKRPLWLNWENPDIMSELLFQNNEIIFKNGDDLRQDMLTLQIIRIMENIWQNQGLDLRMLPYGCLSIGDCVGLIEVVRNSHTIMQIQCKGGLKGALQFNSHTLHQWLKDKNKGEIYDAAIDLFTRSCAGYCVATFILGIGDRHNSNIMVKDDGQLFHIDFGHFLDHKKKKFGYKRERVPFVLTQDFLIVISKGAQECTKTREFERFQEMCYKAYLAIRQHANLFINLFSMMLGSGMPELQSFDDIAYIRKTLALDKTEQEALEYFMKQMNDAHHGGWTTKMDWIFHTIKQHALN
T4 sequence (P27986 whole entry partner): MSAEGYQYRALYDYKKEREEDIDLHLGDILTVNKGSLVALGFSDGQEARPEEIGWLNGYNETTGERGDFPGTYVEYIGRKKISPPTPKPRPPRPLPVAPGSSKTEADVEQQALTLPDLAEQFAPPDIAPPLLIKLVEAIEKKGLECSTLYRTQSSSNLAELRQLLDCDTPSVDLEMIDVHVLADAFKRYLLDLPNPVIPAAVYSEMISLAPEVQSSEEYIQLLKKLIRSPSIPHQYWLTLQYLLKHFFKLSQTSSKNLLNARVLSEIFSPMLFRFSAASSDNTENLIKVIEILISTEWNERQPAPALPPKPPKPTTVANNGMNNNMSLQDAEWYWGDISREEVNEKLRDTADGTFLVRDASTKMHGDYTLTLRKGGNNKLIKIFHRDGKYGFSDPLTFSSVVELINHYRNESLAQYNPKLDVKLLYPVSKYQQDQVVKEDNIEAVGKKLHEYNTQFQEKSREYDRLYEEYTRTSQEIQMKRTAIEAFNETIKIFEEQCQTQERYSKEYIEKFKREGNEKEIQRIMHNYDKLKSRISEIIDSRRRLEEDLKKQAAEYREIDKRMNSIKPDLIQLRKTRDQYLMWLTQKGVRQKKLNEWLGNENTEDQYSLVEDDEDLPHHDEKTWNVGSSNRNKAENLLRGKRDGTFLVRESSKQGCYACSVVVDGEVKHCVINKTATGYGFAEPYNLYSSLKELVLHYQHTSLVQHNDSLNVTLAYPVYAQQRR
T6 sequence (P48736 whole entry): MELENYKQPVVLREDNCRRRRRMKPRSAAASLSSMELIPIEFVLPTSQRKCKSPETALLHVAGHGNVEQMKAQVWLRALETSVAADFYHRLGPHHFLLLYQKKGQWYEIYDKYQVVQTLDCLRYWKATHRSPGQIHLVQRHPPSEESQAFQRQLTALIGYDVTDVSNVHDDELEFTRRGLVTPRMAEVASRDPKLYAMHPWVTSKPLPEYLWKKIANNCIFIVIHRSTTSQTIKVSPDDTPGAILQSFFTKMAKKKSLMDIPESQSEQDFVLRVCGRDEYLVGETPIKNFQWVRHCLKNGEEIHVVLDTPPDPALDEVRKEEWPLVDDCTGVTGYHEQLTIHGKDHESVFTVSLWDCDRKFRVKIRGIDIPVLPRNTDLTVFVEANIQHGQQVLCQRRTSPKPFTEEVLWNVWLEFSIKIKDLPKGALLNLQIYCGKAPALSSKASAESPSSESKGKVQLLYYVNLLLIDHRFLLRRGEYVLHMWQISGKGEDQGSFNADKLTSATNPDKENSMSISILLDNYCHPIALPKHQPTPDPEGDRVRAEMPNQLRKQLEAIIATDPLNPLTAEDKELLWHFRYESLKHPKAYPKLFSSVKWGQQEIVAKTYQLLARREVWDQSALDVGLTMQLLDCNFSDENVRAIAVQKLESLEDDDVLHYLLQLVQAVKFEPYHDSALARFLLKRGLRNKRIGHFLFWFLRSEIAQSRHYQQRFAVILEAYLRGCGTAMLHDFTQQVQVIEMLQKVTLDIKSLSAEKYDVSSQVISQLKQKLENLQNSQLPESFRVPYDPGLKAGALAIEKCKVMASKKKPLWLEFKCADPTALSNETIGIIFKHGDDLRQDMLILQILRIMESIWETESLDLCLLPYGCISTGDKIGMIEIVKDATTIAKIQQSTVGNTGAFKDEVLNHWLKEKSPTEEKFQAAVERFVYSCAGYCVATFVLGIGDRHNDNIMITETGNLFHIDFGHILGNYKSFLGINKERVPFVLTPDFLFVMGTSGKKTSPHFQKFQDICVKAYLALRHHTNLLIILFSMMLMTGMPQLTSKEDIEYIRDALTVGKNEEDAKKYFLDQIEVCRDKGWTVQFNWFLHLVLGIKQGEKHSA
T5 sequence (P42338 whole entry): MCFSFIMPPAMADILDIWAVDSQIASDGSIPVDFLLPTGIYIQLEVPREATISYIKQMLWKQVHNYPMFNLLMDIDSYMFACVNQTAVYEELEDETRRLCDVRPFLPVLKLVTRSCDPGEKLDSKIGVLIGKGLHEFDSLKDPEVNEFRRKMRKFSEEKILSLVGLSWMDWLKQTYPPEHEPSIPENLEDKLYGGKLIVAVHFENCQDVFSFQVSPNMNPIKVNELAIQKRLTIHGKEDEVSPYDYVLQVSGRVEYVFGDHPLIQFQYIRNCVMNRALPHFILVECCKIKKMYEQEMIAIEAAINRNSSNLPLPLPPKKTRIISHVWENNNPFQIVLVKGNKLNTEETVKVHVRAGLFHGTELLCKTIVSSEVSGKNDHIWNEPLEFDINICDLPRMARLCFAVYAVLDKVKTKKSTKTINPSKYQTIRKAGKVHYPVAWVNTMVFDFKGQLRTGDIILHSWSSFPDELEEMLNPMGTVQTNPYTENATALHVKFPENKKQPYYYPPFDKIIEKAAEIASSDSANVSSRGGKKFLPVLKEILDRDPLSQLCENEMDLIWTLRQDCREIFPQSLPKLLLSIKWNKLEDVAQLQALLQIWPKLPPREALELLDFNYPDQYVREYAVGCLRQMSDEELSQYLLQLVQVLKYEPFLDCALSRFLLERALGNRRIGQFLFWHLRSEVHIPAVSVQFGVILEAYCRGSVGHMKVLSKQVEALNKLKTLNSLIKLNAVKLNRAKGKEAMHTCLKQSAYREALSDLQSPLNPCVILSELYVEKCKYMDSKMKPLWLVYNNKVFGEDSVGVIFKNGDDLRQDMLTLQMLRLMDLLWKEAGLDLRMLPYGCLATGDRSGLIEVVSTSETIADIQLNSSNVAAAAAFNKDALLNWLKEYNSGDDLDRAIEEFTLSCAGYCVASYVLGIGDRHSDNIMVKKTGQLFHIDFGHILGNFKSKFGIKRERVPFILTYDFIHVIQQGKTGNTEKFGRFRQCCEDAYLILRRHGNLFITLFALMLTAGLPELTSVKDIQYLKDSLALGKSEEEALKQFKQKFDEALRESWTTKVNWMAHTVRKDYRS
T5 sequence (P27986 whole entry partner): as the sequence (P27986 whole entry partner) above
T2 sequence (O00329 whole entry): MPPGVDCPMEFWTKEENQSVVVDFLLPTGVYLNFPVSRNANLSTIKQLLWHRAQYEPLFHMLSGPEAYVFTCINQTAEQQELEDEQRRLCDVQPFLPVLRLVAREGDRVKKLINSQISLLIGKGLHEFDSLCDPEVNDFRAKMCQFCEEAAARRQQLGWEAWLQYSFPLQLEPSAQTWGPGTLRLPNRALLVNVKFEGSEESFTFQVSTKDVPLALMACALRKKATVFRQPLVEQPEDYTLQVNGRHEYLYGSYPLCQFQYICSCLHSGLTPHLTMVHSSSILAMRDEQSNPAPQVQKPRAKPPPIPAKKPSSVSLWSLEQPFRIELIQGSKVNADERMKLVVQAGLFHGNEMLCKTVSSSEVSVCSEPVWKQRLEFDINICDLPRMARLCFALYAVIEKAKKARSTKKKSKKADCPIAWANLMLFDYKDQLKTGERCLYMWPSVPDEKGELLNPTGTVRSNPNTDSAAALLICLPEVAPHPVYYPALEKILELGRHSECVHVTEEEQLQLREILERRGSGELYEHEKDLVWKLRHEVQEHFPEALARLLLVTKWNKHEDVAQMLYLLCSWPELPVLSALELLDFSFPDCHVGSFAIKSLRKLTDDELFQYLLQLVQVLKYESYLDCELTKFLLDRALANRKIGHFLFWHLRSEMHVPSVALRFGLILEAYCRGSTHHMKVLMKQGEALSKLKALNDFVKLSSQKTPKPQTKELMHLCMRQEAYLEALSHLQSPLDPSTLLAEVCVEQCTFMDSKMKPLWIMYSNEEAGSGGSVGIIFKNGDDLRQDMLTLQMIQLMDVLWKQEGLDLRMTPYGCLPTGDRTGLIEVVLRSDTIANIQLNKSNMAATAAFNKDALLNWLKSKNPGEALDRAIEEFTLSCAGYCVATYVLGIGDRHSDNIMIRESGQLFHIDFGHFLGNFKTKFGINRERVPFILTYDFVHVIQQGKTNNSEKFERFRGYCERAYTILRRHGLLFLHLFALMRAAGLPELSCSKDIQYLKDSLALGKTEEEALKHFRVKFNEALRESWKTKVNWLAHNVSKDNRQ
T2 sequence (P27986 whole entry partner): as the sequence (P27986 whole entry partner) above

Row | Structure (SMILES) | IC50 (mTOR) | IC50 (PI3K delta (PI3Kd)) | IC50 [1] | IC50 (PI3Kα) | IC50 (PI3Kβ) | IC50 (PI3Kγ) | IC50 [2] | IC50 [3]
1 | C[C@@H](CO)NC(=O)Nc1ccc(-c2cc(-c3cc(F)ccc3S(C)(=O)=O)nc(N3CCOC[C@@H]3C)n2)cc1 [Example 74, 1-(4-(6-(5-fluoro-2-(methylsulfonyl)phenyl)-2-((S)-3-methylmorpholino)pyrimidin-4-yl)phenyl)-3-((S)-1-hydroxypropan-2-yl)urea] | 0.1 to 1 µM | ≥ 10 µM | ≥ 10 µM | ≥ 10 µM | ≥ 10 µM | ≥ 10 µM | < 0.1 µM | < 0.1 µM
2 | C[C@H]1COCCN1c1cc(-c2cc(F)ccc2S(C)(=O)=O)nc(-c2ccc(NC(=O)NC3CC3)cc2)n1 [Example 77, (S)-1-cyclopropyl-3-(4-(4-(5-fluoro-2-(methylsulfonyl)phenyl)-6-(3-methylmorpholino)pyrimidin-2-yl)phenyl)urea] | 0.1 to 1 µM | ≥ 10 µM | ≥ 10 µM | ≥ 10 µM | ≥ 10 µM | ≥ 10 µM | < 0.1 µM | < 0.1 µM
3 | C[C@H]1COCCN1c1cc(-c2cc(F)ccc2S(C)(=O)=O)nc(-c2ccc(NC(=O)NCCO)cc2)n1 [Example 78, (S)-1-(4-(4-(5-fluoro-2-(methylsulfonyl)phenyl)-6-(3-methylmorpholino)pyrimidin-2-yl)phenyl)-3-(2-hydroxyethyl)urea] | < 0.1 µM | ≥ 10 µM | ≥ 10 µM | ≥ 10 µM | ≥ 10 µM | ≥ 10 µM | < 0.1 µM | < 0.1 µM

— patent publication US9249129B2, “Morpholino substituted urea derivatives as mTOR inhibitors” (CELLZOME LIMITED, priority 2010, dated 2016)
